Results published in patent US20230339878A1, “SLC26A3 INHIBITORS AND USE THEREOF” (THE REGENTS OF THE UNIVERSITY OF CALIFORNIA, priority 2018, published 2023).

How the values were obtained:
slc26a3 = biological target: T1, slc26a3 (Mus musculus, UniProt Q9WVC8); assay: slc26a3-mediated Cl-/SCN- exchange; format: cell-based, murine; details: read-out: IC50 for inhibition of slc26a3-mediated Cl-/SCN- exchange
T1 construct: host or cells: Fischer rat thyroid (FRT) cells expressing YFP, clonal line FRT-YFP-slc26a3
T1 sequence (Q9WVC8 1-757): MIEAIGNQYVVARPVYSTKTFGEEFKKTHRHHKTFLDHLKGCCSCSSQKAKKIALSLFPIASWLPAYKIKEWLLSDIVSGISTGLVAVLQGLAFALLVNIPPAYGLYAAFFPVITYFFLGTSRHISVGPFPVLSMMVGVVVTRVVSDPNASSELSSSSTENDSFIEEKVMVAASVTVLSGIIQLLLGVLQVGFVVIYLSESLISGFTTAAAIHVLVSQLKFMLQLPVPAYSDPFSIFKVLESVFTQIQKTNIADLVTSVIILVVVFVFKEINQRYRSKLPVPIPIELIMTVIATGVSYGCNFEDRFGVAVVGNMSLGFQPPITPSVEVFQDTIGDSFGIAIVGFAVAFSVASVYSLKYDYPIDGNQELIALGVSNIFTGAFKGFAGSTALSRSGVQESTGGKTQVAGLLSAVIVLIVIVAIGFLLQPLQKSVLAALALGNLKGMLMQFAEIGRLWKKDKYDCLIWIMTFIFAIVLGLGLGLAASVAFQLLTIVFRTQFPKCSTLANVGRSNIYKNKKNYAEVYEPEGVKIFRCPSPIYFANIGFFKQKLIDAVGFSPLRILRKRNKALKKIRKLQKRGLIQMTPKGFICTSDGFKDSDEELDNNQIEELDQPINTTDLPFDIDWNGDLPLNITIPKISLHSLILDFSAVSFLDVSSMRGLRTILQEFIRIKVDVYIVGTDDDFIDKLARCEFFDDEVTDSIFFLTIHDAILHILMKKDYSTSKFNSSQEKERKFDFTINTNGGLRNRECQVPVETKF
Description: Concentration-dependence measurements for inhibition of slc26a3-mediated exchange of Cl^- and HCO3^-, the physiologically relevant activity of slc26a3, was measured using slc26a3-expressing FRT cells labeled with BCECF as a cytoplasmic pH sensor. Labeled cells were initially incubated in a Cl^--containing HCO3^- buffered solution, and HCO3^- influx / Cl^- efflux with cytoplasmic alkalinization was produced by addition of a gluconate-containing HCO3^- buffered solution. […] Concentration-dependence measurements for inhibition of slc26a3-mediated Cl^-/SCN^- exchange gave an IC50 of ~0.3 µM (FIG. 4B).

(human) SLC26A3 = biological target: T2, (human) SLC26A3 (Homo sapiens, UniProt P40879); assay: SLC26A3-mediated Cl-/I- exchange in HEK cells expressing SLC26A3 and YFP; format: cell-based
T2 construct: host or cells: HEK293 cells transduced with lentivirus, then transfected with YFP
T2 sequence (P40879 1-764): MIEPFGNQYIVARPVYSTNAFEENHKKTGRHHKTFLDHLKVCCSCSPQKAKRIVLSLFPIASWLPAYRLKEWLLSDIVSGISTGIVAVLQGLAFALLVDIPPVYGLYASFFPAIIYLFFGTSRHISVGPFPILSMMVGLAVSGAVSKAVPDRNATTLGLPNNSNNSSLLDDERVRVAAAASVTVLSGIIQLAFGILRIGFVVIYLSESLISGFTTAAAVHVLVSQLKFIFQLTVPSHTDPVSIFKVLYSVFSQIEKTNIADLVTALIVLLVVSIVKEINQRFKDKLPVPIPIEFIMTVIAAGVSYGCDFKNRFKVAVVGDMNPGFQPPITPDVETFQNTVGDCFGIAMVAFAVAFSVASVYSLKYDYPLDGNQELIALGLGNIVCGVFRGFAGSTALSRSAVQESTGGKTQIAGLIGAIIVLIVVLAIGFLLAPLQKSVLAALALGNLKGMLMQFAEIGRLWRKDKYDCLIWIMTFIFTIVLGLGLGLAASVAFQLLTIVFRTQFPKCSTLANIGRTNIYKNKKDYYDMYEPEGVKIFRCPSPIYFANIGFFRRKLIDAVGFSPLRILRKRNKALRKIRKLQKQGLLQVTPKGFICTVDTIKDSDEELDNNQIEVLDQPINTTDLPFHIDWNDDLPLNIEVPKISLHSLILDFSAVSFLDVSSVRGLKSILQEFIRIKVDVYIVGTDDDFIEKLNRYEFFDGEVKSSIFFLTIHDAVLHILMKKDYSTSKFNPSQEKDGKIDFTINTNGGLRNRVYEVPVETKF
Description: Inhibition of (human) SLC26A3 by Compound A1 was also tested, using a HEK cell model expressing SLC26A3 and YFP.
To generate a cell line enriched for expression of SLC26A3, HEK293 cells were transduced with lentiviral particles generated with the pLVX-IRES-mCherry-SLC26A3 transfer vector and then transfected to express YFP.
HEK293 cells transfected with pIRES-YFP-slc26a9 were plated in 96-well black-walled, clear-bottom tissue culture plates (Corning Life Sciences, Tewksbury, MA) after coating with FNC Coating Mix (AthenaES, Baltimore, MD). […] Assays of slc26a9-mediated anion exchange were done by initially recording YFP fluorescence prior to addition of 100 µL of NaI-substituted PBS to test wells, with the initial rate of Cl^-/I^- exchange deduced from fluorescence intensity by single exponential regression. […] To assay SLC26A3 function, HEK293 cells transduced with lentiviral particles generated from the pLVX-IRES-mCherry-SLC26A3 transfer vector were transfected to express YFP for Cl^-/I^- exchange assays as described above; red fluorescence images were acquired to confirm SLC26A3 expression in cells. […]

For `Cc1c(CC(=O)O)c(=O)oc2c(C)c(OCc3cccc(Br)c3)ccc12` [Compound A1], the IC50 (slc26a3) was about 300 nM, the IC50 ((human) SLC26A3; HEK cells) was about 250 nM and the “extent of inhibition of SLC26A3-mediated Cl-/I- exchange” value ((human) SLC26A3; higher concentrations) was “complete inhibition”.
